Experimental data reported in patent US11046720B2, “Dimethylphosphine oxide compound” (GUIZHOU INOCHINI TECHNOLOGY CO., LTD, priority 2018, dated 2021).
Like-named read-outs stand apart in the source and are kept apart here.

Assays:
[1] = molecular target: T1, LRRK2 full-length human recombinant protein (Homo sapiens, UniProt Q5S007); assay: In vitro evaluation of LRRK2 kinase inhibitory activity (HTRF / TR-FRET, LRRKtide); type: biochemical; conditions: 57 μM ATP, 0.4 uM Fluorescein-ERM (LRRKtide) peptide
T1 construct: express LRRK2 full-length human recombinant protein in Sf9 cells of insects; GST; made in house; host or cells: Sf9 insect cells (baculovirus)
T1 sequence (Q5S007 whole entry): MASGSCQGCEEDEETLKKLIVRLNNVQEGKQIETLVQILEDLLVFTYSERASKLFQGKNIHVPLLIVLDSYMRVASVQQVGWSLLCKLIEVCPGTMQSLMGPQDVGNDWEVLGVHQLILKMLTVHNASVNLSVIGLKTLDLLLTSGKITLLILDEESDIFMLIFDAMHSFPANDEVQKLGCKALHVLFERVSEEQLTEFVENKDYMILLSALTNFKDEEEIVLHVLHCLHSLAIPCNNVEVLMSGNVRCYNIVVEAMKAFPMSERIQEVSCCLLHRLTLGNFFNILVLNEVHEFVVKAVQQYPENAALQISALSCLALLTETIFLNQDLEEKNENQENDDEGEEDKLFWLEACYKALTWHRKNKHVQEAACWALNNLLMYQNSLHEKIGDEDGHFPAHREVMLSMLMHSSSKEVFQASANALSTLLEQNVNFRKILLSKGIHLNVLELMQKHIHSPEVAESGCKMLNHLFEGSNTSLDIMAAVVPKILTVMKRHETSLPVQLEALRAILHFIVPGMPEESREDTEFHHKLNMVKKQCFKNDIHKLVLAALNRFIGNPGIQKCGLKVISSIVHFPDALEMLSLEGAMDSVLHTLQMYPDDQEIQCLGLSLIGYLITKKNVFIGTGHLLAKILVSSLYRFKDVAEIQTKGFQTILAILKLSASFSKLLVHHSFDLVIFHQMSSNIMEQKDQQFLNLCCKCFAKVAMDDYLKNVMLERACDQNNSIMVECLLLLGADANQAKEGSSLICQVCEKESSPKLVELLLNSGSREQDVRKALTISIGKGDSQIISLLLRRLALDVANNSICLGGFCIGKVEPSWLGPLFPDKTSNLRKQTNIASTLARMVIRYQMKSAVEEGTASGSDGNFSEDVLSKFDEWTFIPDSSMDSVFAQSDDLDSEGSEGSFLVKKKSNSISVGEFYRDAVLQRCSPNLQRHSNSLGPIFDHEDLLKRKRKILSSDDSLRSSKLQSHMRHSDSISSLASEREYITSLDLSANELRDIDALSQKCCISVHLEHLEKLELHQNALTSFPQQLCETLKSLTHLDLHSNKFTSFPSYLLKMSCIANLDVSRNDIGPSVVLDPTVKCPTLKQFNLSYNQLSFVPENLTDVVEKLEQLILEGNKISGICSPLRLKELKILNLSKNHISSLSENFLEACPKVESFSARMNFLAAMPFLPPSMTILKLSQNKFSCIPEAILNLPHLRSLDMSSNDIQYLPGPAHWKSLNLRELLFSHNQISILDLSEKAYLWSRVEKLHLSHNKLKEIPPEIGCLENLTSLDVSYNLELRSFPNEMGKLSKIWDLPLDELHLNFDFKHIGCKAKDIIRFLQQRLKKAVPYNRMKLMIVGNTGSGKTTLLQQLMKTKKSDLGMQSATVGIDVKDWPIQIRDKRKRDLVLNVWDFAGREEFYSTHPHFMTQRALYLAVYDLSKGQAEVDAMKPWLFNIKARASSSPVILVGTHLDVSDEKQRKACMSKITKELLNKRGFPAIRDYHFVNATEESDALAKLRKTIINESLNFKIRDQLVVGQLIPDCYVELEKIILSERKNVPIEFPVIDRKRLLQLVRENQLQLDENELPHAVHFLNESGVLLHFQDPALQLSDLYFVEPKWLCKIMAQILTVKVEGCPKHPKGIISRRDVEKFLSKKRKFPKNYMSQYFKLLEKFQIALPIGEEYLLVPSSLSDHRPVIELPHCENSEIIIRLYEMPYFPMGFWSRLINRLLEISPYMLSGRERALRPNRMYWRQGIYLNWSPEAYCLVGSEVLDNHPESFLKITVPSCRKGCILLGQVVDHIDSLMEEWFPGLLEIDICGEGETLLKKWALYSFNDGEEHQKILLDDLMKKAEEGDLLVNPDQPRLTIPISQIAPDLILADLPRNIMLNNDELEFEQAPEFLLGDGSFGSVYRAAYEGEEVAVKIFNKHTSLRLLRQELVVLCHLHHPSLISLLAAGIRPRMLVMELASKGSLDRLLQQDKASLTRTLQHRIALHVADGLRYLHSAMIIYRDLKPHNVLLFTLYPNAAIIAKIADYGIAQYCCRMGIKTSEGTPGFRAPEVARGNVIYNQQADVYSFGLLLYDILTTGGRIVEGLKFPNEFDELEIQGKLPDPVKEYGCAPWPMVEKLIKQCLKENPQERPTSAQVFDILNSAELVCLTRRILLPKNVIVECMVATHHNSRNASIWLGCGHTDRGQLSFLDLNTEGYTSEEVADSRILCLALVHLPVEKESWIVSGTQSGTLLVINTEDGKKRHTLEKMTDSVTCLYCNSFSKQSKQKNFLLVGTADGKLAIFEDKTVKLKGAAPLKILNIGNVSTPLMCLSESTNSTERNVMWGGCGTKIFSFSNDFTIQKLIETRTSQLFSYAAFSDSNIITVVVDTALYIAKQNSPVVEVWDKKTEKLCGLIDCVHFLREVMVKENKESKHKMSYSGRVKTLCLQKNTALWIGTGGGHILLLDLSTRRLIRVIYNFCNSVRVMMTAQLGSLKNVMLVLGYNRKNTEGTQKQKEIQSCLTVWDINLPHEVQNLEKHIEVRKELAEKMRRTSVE
Experimental: Experimental purpose: to detect transfer of energy signals (ratio of fluorescence signals: […]) after the phosphate group of phosphorylated Fluorescein-ERM (LRRKtide) peptide binds with LanthaScreen® Tb-pERM (pLRRKtide) antibody using homogeneous time-resolved fluorescence. Calculate IC50 for LRRK2 inhibition of the compound to be assayed.
1. Reaction solution: 10 mM 4-(2-hydroxyethyl) piperazine-1-ethanesulfonic acid (pH 7.5); 2 mM magnesium chloride; 0.5 mM glycol-bis-(2-aminoethylether)-N; 0.002% primary alcohol ethoxylate, 1 mM dithiothreitol and 1% DMSO;
2. Assay solution: TR-FRET Dilution Buffer;
3. LRRK2 human recombinant protein: use GST tag and baculovirus to express LRRK2 full-length human recombinant protein in Sf9 cells of insects;
4. Substrate: 0.4 uM Fluorescein-ERM (LRRKtide) peptide; 57 uM ATR
Resonance energy transfer of Fluorescein-ERM (LRRKtide) peptide and LanthaScreen® Tb-pERM (pLRRKtide) antibody between […].
1. Add DMSO solution of the compound to be assayed through the Echo550 non-contact nano-liter acoustic droplet ejection system;
2. Prepare mixed solution of enzyme and polypeptide with freshly prepared reaction solution. Add the mixed solution to the reaction cavity and warm it up at room temperature for 20 minutes in advance;
3. Add 57 μM ATP to initiate reaction, which lasts for 90 minutes at room temperature;
4. Add fluorescein-ERM (LRRKtide) peptide, LanthaScreen® Tb-pERM (pLRRKtide) antibody and 10 mM ethylene diamine tetraacetic acid to the assay system. The reaction lasts for 60 minutes at room temperature. Detect yellow light signals with Em/Ex 520/485.
5. Measure enzyme activity inhibition relative to DMSO blank control group according to the signal ratio, and calculate IC50 by fitting curves with the software XLfit5.

[2] = molecular target: T2, LRRK2 (pSer935) (Homo sapiens, UniProt Q5S007); assay: In vitro evaluation of inhibitory activity for LRRK2 cell (pSer935), 293T cells transfected with pcmv-flag-lrrk2, MSD; type: cell-based
T2 construct: expressed in transfected cells; host or cells: 293T cells
T2 sequence (Q5S007 whole entry): as above
Experimental: Take 293T cells out of liquid nitrogen and put them in water at 37° C. After ice has fully thawed, transfer the cells to 5 mL warm culture medium. Discard the supernatant through centrifugation, and culture the suspended cells in the culture medium as new cells.
Culture the 293T cells in the culture medium for two to three days.
Plant 1.4×10^6/293T cells on a culture plate. After two days of culturing, cells will multiply to 5×10^6, so planting cells on N+1 plates is enough for performing experiments on N 96-well plates.
1) Add 5 μl (0.5 μg/μl) pcmv-flag-Irrk2 to 145 μl DMEM culture medium, and mix them evenly with a straw;
6) Incubate the culture plate inside a humidified incubator with 5% carbon dioxide for 20 to 24 hours at 37° C.
3. (Day 3) Plant the 293T Cells on the 96-Well Plate;
3) Transfer 50 μl inhibitor containing culture medium to the cell culture plate;
4) Incubate the culture plate inside a humidified incubator with 5% carbon dioxide for 20 to 24 hours at 37° C.;
5) Extract 300 μl inhibitor containing culture medium with a dropper. Take 200 μl inhibitor containing culture medium and add 100 μl decomposer into the culture medium. After the plate has been sealed, it shall be shaken for 30 minutes at 4° C.
1) Add 2 μg/25 μl labeled antibody to the MSD plate to incubate for 2 hours; (50 μl 3.9 μg/μl Flag antibody+2.5 ml fetal bovine serum per plate). Maintain centrifugation for 10 s (1,000 rpm);
5) Transfer 12.5 μl lysis buffer and 12.5 μl cell lysis buffer to the MSD plate to incubate for 1 hour at room temperature;
7) Dilute ps935 antibody at 1:200, and add 25 μl antibody to incubate for 1 hour;
9) Dilute goat anti-rabbit antibody at 1:500, and add 25 μl antibody to the incubation plate to incubate for 1 hour;
13) After incubation for about 3 minutes, read data over 15 minutes.

[3] = Pharmacokinetic evaluation in C57BL/6 mice, brain tissues and plasma; type: in vivo; conditions: oral, 5 mg/kg; for Kp / AUC(0-t) / Tmax / Cmax / half-life: male, C57BL/6, mouse; for Kp: brain/plasma, read-out: drug concentration ratio between brain tissues and plasma (B/P)
Experimental: Experimental purpose: to study pharmacokinetics of the compounds in vivo in C57BL/6 mice—drug concentration ratio between brain tissues and plasma
Experimental materials: C57BL/6 mice (male, 8 weeks old, weight: 25 g-30 g)
Assay Pharmacokinetic Features of Glires after they are Orally Administered the Compounds According to Standard Schemes.
In the experiment, the candidate compounds are prepared into 1 mg/mL mixed suspension, and mice are orally administered once. The menstruum for oral administration is 10% dimethyl sulfoxide (DMSO)/10% polysorbate/20% PEG-400 aqueous solution. This project uses male C57BL/6 mice, which are orally administered drugs at a dose of 5 mg/kg. Collect the whole brain 0.5, 1, 2 and 4 hours after the administration. Homogenize tissue samples with 15 mM [[…] (pH=7.4) buffer and methanol (volume ratio: 2:1)] at a ratio of 1:5 (w:v). Equally divide the homogenate into 2 samples: one for assay and the other for standby use. Besides, collect plasma 0.5, 1, 2 and 4 hours after administration. Centrifugate with 3,000 g relative centrifugal force within half an hour after collection at about 4° C. for 15 minutes to separate supernatant and obtain plasma samples. Store the plasma samples in polypropylene tubes; rapidly freeze them on dry ice and keep them at −80° C. till LC/MS/MS assay. Add internal standard precipitated protein of acetonitrile solution and fully mix them to extract supernatant samples via centrifugation. Quantitatively analyze plasma concentration by LC-MS/MS assay and calculate pharmacokinetic parameters such as maximal concentration (Cmax), half-life (T1/2), maximal time (Tmax), drug concentration in different tissues after administration (AUC0-last), and drug concentration ratio between brain tissues and plasma (B/P).

[4] = system: LRRK2 phosphorylation in brain tissues; assay: In vivo pharmacological experiment: LRRK2 phosphorylation in brain tissues of mice (western blot); set-up: species or system C57BL/6J mice; conditions: oral, 10 mg/kg, once, 1 hour after administration
Experimental: Animals: C57BL/6J mice (male, 6-7 weeks old, weight: 20 g-22 g).
Grouping: Weigh all mice one day ahead of the experiment and divide them into 6 groups at random according to their weight, with 4 mice in each group. Exclude too heavy and too light mice, to ensure that average weight of all groups is the same.
The animals of each group are orally administered menstruum or the compound to be assayed in chronological order as shown in Table 4. One mouse is administered every 2 minutes. 1 hour after administration, all animals are successively euthanized with carbon dioxide in chronological order.
(1) After protein determination of brain tissue samples by BCA, apply 4% to 15% precast gel in an equal amount of protein samples.
(3) Perform protein electrophoresis at 200 V for 30 minutes. Then, use Midi PVDF Transfer Packs for membrane transfer for 7 minutes. Next, block them with TBS Blocker at room temperature for 1 hour.
(4) Prepare 5% milk with skimmed milk powder. Then, formulate antibodies P-LRRK2 (add 20 μl antibody to 5 mL 5% milk at 1:250), total-LRRK2 (add 10 μl antibody to 5 ml 5% skimmed milk at 1:500), p-Rabl0 (add 10 μl antibody to 5 mL 5% skimmed milk at 1:500) and p-actin (add 5 μl antibody to 5 mL 5% milk at 1:1000), and incubate the antibodies overnight. (5) Recycle the primary antibodies and rinse membranes with TBS for three times, 10 minutes each time. […]

[5] = brain tissues, read-out: AUC0-last Brain Tissues
[6] = brain tissues, read-out: Tmax Brain Tissues
[7] = plasma, read-out: AUC0-last Plasma
[8] = plasma, read-out: T1/2 Plasma (converted)
[9] = brain tissues, read-out: T1/2 Brain Tissues (converted)

Work on COc1nc(N2CCC3(CCOC3)C2)ccc1Nc1ncc(Cl)c(Nc2ccccc2P(C)(C)=O)n1 (stereo not drawn) [Embodiment 1] yielded an IC50 [1] of 21 nM.
For COc1nc(N2CCC3(CCCOC3)C2)ccc1Nc1ncc(Cl)c(Nc2ccccc2P(C)(C)=O)n1 (stereo not drawn) [Embodiment 2], the IC50 [1] was 24.4 nM.
COc1nc(N2CC3(CCOCC3)C2)ccc1Nc1ncc(Cl)c(Nc2ccccc2P(C)(C)=O)n1 [Embodiment 3] gave an IC50 [1] of 6.2 nM, an IC50 [2] of 4.3 nM and a Kp [3] of 0.14. It also gave an AUC(0-t) [3, 5] of 0.192 µM·h, a Tmax [3, 6] of 30 min and a Cmax ([3]; plasma) of 1180 nM. It also gave an AUC(0-t) [3, 7] of 1.39 µM·h, a half-life [3, 8] of 35.4 min and a Tmax ([3]; plasma, read-out: Tmax Plasma) of 30 min. For the same compound, the “Cmax Brain Tissues” value ([3]; brain tissues) was 217 nM.
In the case of COc1nc(N2CCC3(CCCCO3)C2)ccc1Nc1ncc(Cl)c(Nc2ccccc2P(C)(C)=O)n1 (stereo not drawn) [Embodiment 4], the IC50 [1] is reported as 34.2 nM.
With COc1nc(N2CCC3(CCCO3)C2)ccc1Nc1ncc(Cl)c(Nc2ccccc2P(C)(C)=O)n1 (stereo not drawn) [Embodiment 5] the IC50 [1] was 8.2 nM and the IC50 [2] was 4 nM.
For COc1nc(N2CC3(CCCOC3)C2)ccc1Nc1ncc(Cl)c(Nc2ccccc2P(C)(C)=O)n1 [Embodiment 6], the IC50 [1] was 2.9 nM and the IC50 [2] was 3.3 nM.
In the case of COc1nc(N2CC3(CCCCO3)C2)ccc1Nc1ncc(Cl)c(Nc2ccccc2P(C)(C)=O)n1 [Embodiment 7], the IC50 [1] is reported as 8.5 nM and the IC50 [2] is reported as 10.9 nM.
Compound COc1nc(N2CCC3(CCOCC3)CC2)ccc1Nc1ncc(Cl)c(Nc2ccccc2P(C)(C)=O)n1 [Embodiment 8] has an IC50 [1] of 7.2 nM.
With COc1nc(N2CC3(CCOC3)C2)ccc1Nc1ncc(Cl)c(Nc2ccccc2P(C)(C)=O)n1 [Embodiment 9] the IC50 [1] was 7.8 nM, the IC50 [2] was 4.7 nM and the Kp [3] was 0.2. For the same compound, the AUC(0-t) [3, 5] was 0.489 µM·h, the half-life [3, 9] was 21.6 min and the Tmax [3, 6] was 30 min. The Cmax ([3]; plasma) was 2600 nM, the AUC(0-t) [3, 7] was 2.48 µM·h and the half-life [3, 8] was 33.6 min. For the same compound, the Tmax ([3]; plasma, read-out: Tmax Plasma) was 30 min and the “Cmax Brain Tissues” value ([3]; brain tissues) was 604 nM.
In the case of COc1nc(N2CCC3(CCOCC3)C2)ccc1Nc1ncc(Cl)c(Nc2ccccc2P(C)(C)=O)n1 [Embodiment 10], the IC50 [1] is reported as 21.6 nM.
In the case of COc1nc(N2CC3(CC(OC)C3)C2)ccc1Nc1ncc(Cl)c(Nc2ccccc2P(C)(C)=O)n1 [Embodiment 11], the IC50 [1] is reported as 5.3 nM, the IC50 [2] is reported as 4.5 nM and the Kp [3] is reported as 0.41. For the same compound, the AUC(0-t) [3, 5] was 0.597 µM·h, the half-life [3, 9] was 22.2 min and the Tmax [3, 6] was 30 min. It also gave a Cmax ([3]; plasma) of 1560 nM, an AUC(0-t) [3, 7] of 1.45 µM·h and a half-life [3, 8] of 28.2 min. For the same compound, the Tmax ([3]; plasma, read-out: Tmax Plasma) was 30 min and the “Cmax Brain Tissues” value ([3]; brain tissues) was 698 nM.
For COc1nc(N2CC3(COC3)C2)ccc1Nc1ncc(Cl)c(Nc2ccccc2P(C)(C)=O)n1 [Embodiment 12], the IC50 [1] was 1.6 nM, the IC50 [2] was 3.7 nM and the Kp [3] was 0.14. The AUC(0-t) [3, 5] was 0.476 µM·h, the half-life [3, 9] was 23.4 min and the Tmax [3, 6] was 30 min. It also gave a Cmax ([3]; plasma) of 3630 nM, an AUC(0-t) [3, 7] of 3.46 µM·h and a half-life [3, 8] of 36 min. For the same compound, the Tmax ([3]; plasma, read-out: Tmax Plasma) was 30 min and the “Cmax Brain Tissues” value ([3]; brain tissues) was 576 nM.
COc1nc(N2CC3(C2)CC(F)(F)C3)ccc1Nc1ncc(Cl)c(Nc2ccccc2P(C)(C)=O)n1 [Embodiment 13] showed an IC50 [1] of 9.1 nM, a Kp [3] of 0.52 and an AUC(0-t) [3, 5] of 1.16 µM·h. For the same compound, the half-life [3, 9] was 43.2 min, the Tmax [3, 6] was 30 min and the Cmax ([3]; plasma) was 1200 nM. It also gave an AUC(0-t) [3, 7] of 2.25 µM·h, a half-life [3, 8] of 58.8 min and a Tmax ([3]; plasma, read-out: Tmax Plasma) of 30 min. The “Cmax Brain Tissues” value ([3]; brain tissues) was 726 nM.
Work on COc1nc(N2CC3(CCC3)C2)ccc1Nc1ncc(Cl)c(Nc2ccccc2P(C)(C)=O)n1 [Embodiment 14] yielded an IC50 [1] of 15.2 nM, a Kp [3] of 0.96 and an AUC(0-t) [3, 5] of 4.2 µM·h. For the same compound, the Tmax [3, 6] was 60 min, the Cmax ([3]; plasma) was 1650 nM and the AUC(0-t) [3, 7] was 4.39 µM·h. For the same compound, the Tmax ([3]; plasma, read-out: Tmax Plasma) was 60 min and the “Cmax Brain Tissues” value ([3]; brain tissues) was 2042 nM.
For COc1nc(N2CC3(C2)CC3(F)F)ccc1Nc1ncc(Cl)c(Nc2ccccc2P(C)(C)=O)n1 [Embodiment 15], the IC50 [1] was 7.4 nM, the Kp [3] was 0.54 and the AUC(0-t) [3, 5] was 2.15 µM·h. The half-life [3, 9] was 37.8 min, the Tmax [3, 6] was 30 min and the Cmax ([3]; plasma) was 2150 nM. The AUC(0-t) [3, 7] was 4.02 µM·h, the half-life [3, 8] was 45 min and the Tmax ([3]; plasma, read-out: Tmax Plasma) was 30 min. The “Cmax Brain Tissues” value ([3]; brain tissues) was 1436 nM.
Compound COc1ncc(N2CC3(CCOC3)C2)cc1Nc1ncc(Cl)c(Nc2ccccc2P(C)(C)=O)n1 [Embodiment 16] has an IC50 [1] of 10.6 nM.
COc1ncc(N2CCC3(CCOCC3)C2)cc1Nc1ncc(Cl)c(Nc2ccccc2P(C)(C)=O)n1 [Embodiment 17] showed an IC50 [1] of 27.7 nM.
With COc1ncc(N2CC3(COC3)C2)cc1Nc1ncc(Cl)c(Nc2ccccc2P(C)(C)=O)n1 [Embodiment 18] the IC50 [1] was 4.6 nM and the IC50 [2] was 86.1 nM.
For COc1ncc(N2CC3(CCOCC3)C2)cc1Nc1ncc(Cl)c(Nc2ccccc2P(C)(C)=O)n1 [Embodiment 19], the IC50 [1] was 11.9 nM.
COc1c(Nc2ncc(Cl)c(Nc3ccccc3P(C)(C)=O)n2)ccnc1N1CC2(CCOC2)C1 [Embodiment 20] gave an IC50 [1] of 1.6 nM and an IC50 [2] of 22 nM.
COc1c(Nc2ncc(Cl)c(Nc3ccccc3P(C)(C)=O)n2)ccnc1N1CC2(CCC2)C1 [Embodiment 21] gave an IC50 [1] of 36.8 nM.
COc1c(Nc2ncc(Cl)c(Nc3ccccc3P(C)(C)=O)n2)ccnc1N1CC2(COC2)C1 [Embodiment 22] showed an IC50 [1] of 2.6 nM and an IC50 [2] of 44 nM.
With CCNc1nc(Nc2cc(F)c(C(=O)N3CCOCC3)cc2OC)ncc1C(F)(F)F [GNE-7915] the “inhibition of LRRK2 phosphorylation in brain tissues” value [4] was “inhibits FRRK2 phosphorylation”.
